Results as given in PMC5608406, “In vivo activation of latent HIV with a synthetic bryostatin analog effects both latent cell "kick" and "kill" in strategy for virus eradication” (PLoS Pathogens, 2017).
“Also recorded” adds a separate entry of the source.

Legend:
[1] = test system: human T cells in BLT mice; assay: Stimulation of human cells in uninfected humanized BLT mice (CD69, CD25); format: in vivo; settings: spleen and blood, one day after stimulation
murine splenocytes = assay: In vivo bioactivity (CD69/CD25 in splenocytes) in C57/bl6 mice
Protocol: C57/bl6 mice were obtained from the UCLA Department of Radiation Oncology. Compounds were suspended in DMSO and then further diluted in RF10 media to produce a final volume of 500 μL (containing a maximum 4% DMSO). These 500 μL volumes were administered to mice by intraperitoneal injection. Mice were monitored for acute toxicities and then sacrificed at the indicated times. Spleens were removed and disaggregated using a steel mesh, and then filtered through a 40 μm filter to produce a single-cell suspension. The resultant splenocytes were then stained for flow cytometry to analyze surface expression of relevant markers.
During standard flow cytometry staining, samples of 10^5 cells were suspended in 50 μL of a 1:1 dilution of phosphate buffered saline (PBS):Human AB serum (Sigma). Staining of C57/bl6 mouse splenocytes was performed by adding the following anti-mouse fluorescent conjugated antibodies: CD3-Fluorescein isothiocyanate (FITC, eBioscience 11-0032-82); CD69-Phycoerythrin (PE, eBioscience 12-0691-83); and CD4-Allophycocyanin (APC, eBioscience 17-0041-83). In some experiments CD4-APC was replaced with CD25-APC (eBioscience 17-0251-82) and CD4-Phycoerythrin Cyanin 7 (PC7, eBioscience 25-0041-82). For humanized mouse studies, PBMC and splenocytes from BLT mice were stained with anti-mouse CD45-Alexa 700 (Biolegend 103128) and the following anti-human antibodies: CD45-e450 (eBioscience 48-0459-42); CD3-APC-780 (eBioscience; 47-0038-42); CD4-V500 (BD biosciences; 560768); CD8-Peridinin chlorophyll protein (PerCP)-710 (eBioscience 46-0087-42); CD25-PE (Beckman IM0479U); CD69-APC (Biolegend 310910); CD14-PE-Cy7 (Biolegend 325618). Cells were separately stained for anti-human CD45 e450- (eBioscience 48-0459-42) and anti-HA-Biotin PE (Roche 12158167001) followed by a secondary Streptavidin, R-Phycoerythrin Conjugate (Invitrogen s866) stain. This two-step stain was performed by incubating 1-2x10^6 cells at 4°C for 20–30 min, washing with 2% FBS in PBS, then adding the secondary stain, incubating again at 4°C for 20–30 min, and washing with 2% FBS in PBS before fixation with 2% paraformaldehyde. In some experiments, cell death was also evaluated by GHOST Red 780 (Tonbo Biosciences 13–0865) or Zombie Yellow (Biolegend 423104) stains. For this procedure, 10^6 cells were suspended in 100 μL PBS, and then the Zombie yellow and GHOST Red 780 dyes added. Cells were incubated for 20 min at room temperature in the dark and then washed twice with 2% FBS in PBS. Cells were then fixed with 2% paraformaldehyde and incubated for 20 min in the dark. In some experiments cells were then washed with 2% FBS in PBS, resuspended in 1:1 PBS:Human AB serum and then stained for human CD45 and HA, CD3-PE-Cy5 (Biolegend 300310), CD4-ECD (Beckman 6604727), CD8 Per-CO710 (eBioscience 46-0087-42) and CD3-APC (Cell signaling 9602S) as described above.

[2] = test system: latent HIV in CD4+ T cells from ART-treated patients; assay: Activation of HIV from latency in patient-derived CD4+ T cells (virion-associated HIV RNA in supernatant); format: cell-based, human
From the text: Nine HIV-infected individuals receiving ART for a median of 2.6 years (range 0.4–9.1) were studied. All study subjects maintained undetectable levels of plasma viremia (<50 copies/mL) at the time of study (S1 Table).
CD4^+ T cells were isolated from cryopreserved peripheral blood mononuclear cells (PBMCs) using a cell enrichment kit (StemCell Technologies). For patient samples 1–6, resting CD4^+ T cells were further isolated by depleting CD25^+, HLA-DR^+ and CD69^+ CD4^+ cells using PE-conjugated antibodies (BD Biosciences) and anti-PE microbeads (Miltenyi Biotec). CD4^+ T cells were incubated with RPMI 1640-based medium containing antiretroviral drugs consisting of T-20 (100 μg/mL), tenofovir (1 μM), and emtricitabine (1 μM), and test stimuli at concentrations indicated in the figures.
The copy number of virion-associated HIV RNA in the cell culture supernatants was measured using the Cobas Ampliprep/Cobas Taqman HIV-1 Test, Version 2.0 (Roche Diagnostics) following 36–48 hours of incubation of cells with the above study compounds. The limit of detection was 20 copies/mL.

[3] = Plasma cytokine quantification after in vivo administration; settings: following administration to C57/bl6 mice
Protocol: Quantification of the levels of the murine cytokines IL-2, IL-6, MIP-1-alpha, and TNF-alpha in mouse plasma samples was performed using a custom Milliplex Mouse Cytokine/Chemokine Magnetic Kit (Millipore) according to the manufacturer’s recommendations. Wash steps were performed using a Bio-Plex II Wash Station (Bio-Rad), and the data were acquired using a Bio-Plex 200 System with high-throughput fluidics (Bio-Rad). The resultant data were analyzed using Bio-Plex Manager 6.1 software.

primary CD4+ T cells = assay: Induction of CD69 expression in primary CD4+ T cells; format: cell-based, human; settings: 24h
Protocol: Primary human cells from HIV seronegative individuals were cultured in “RF10 medium” consisting of RPMI 1640 medium supplemented with 10% fetal bovine serum (FBS, Omega Scientific), 100 U/mL of penicillin, and 100 μg/mL of streptomycin (Invitrogen). PBMCs were isolated using Ficoll-Paque Plus separation (GE Healthcare). Primary CD4+ T cells were separated from PBMCs by negative immunomagnetic selection using the CD4+ T cell Isolation Kit (Miltenyi Biotec) according to the manufacturer’s instructions. Cells were then exposed to compound for 24 hours before staining and flow cytometric analysis of CD69 levels. Compound incubations were performed by seeding 10^5 cells/well in 100 μL of RF10 media containing the appropriate concentration of compound in wells of a v-bottomed 96-well plate. Bryostatin 1 (Tocris bioscience) and Prostratin (LC Laboratories) were obtained commercially, and bryologs or prostratin analogs were synthesized as previously described.
For human PBMC CD69 induction experiments, cells were stained with CD69-ECD (Beckman Coulter 6607110). During staining, cells were incubated at 4 °C for 20 minutes, washed with 2% FBS in PBS, and then resuspended in 2% paraformaldehyde. Stained samples were stored at 4 °C.
Flow cytometry samples were analyzed using a Cytomics FC 500 (Beckman Coulter) or a LSR Fortessa (BD Biosciences) flow cytometer. Data were analyzed using FlowJo (v7) software.

[4] = CD4+ T cells from 3 ART-treated patients, 48h

C=C1C[C@H]2C[C@]3(O)O[C@H](C[C@@H](O)CC(=O)O[C@@H](CO)C[C@@H]4C/C(=C\C(=O)OC)[C@H](OC(=O)CCCCCCC)[C@@](O)(O4)C(C)(C)/C=C/[C@@H](C1)O2)C[C@H](OC(C)=O)C3(C)C [SUW133]
CD25 expression in human T cells [1]: limited CD25 expression
CD69 expression in human T cells [1]: robust activation of CD69
CD4+ splenocytes expressing CD69 (murine splenocytes; intraperitoneal injection, 24h post-injection, maximum over ascending doses): over 80%
lowest dose inducing CD69 expression (murine splenocytes; intraperitoneal injection, C57/bl6 mice): 1 µg
CD25 expression on CD3+ T cells in spleen (murine splenocytes; single injection of 10 μg): remained unchanged
CD69 expression on splenocytes, time course (murine splenocytes; single injection of 10 μg, up to day 9): transient expression of CD69 on the vast majority of murine splenocytes
amount of cell-free virion-associated HIV RNA relative to maximal T cell stimulation (costimulation) [2, 4]: approximately 1/3
virus production compared with other LRAs [2, 4]: significantly outperformed panobinostat, vorinostat, JQ1, and bryostatin 1 treatment
induction of latent virus (cell-free virion-associated viral RNA) ([2]; resting CD4+ T cells from 6 aviremic patients, 50 nM, 36h): induced significant levels of latent virus
plasma concentration of MIP-1-alpha [3]: no detectable increase
plasma concentration of TNF-alpha [3]: no detectable increase
plasma concentration of interleukin (IL)-2 [3]: no detectable increase
plasma IL-6 levels ([3]; days 1 to 9): only a short-term elevation; also recorded: declined significantly between days 1 and 9 post-injection
CD69 expression (primary CD4+ T cells): upregulates expression
